The subject of assay [1] is ABL1 (human), P00519 [F317I]. As to the kind of experiment: KINOMEscan competition binding. The following applies: compound 10.0 µM.
The next assay addresses ALK (human) (UniProt Q9UM73). Briefly: KINOMEscan competition binding. The settings on record: compound 10.0 µM.
The next assay has as its target DCLK1 (human) (UniProt O15075). As to the kind of experiment: KINOMEscan competition binding.
A further assay deals with DCLK2 (human) (UniProt Q8N568). Briefly: KINOMEscan competition binding. The settings on record: compound 10.0 µM.
Another assay addresses GAK (human) (UniProt O14976). As to the kind of experiment: KINOMEscan competition binding. The settings on record: compound 10.0 µM.
Another assay has as its target MAPK7 (human) (UniProt Q13164). As to the kind of experiment: KINOMEscan competition binding. The settings on record: compound 10.0 µM.
The target of a further assay is PLK4 (human) (UniProt O00444). Briefly: KINOMEscan competition binding. The following applies: compound 10.0 µM.
In a further assay the target is ROS1 (human) (UniProt P08922). As to the kind of experiment: KINOMEscan competition binding. The following applies: compound 10.0 µM.
In a further assay the target is RPS6KA1 KD2 (human) (UniProt Q15418). Briefly: KINOMEscan competition binding. The following applies: compound 10.0 µM.
A further assay concerns the target RPS6KA6 KD2 (human) (UniProt Q9UK32). Briefly: KINOMEscan competition binding. The settings on record: compound 10.0 µM.
For the next assay, the target named is TNK1 (human) (UniProt Q13470). As to the kind of experiment: KINOMEscan competition binding. The following applies: compound 10.0 µM.
Another assay has as its target TNK2 (human) (UniProt Q07912). As to the kind of experiment: KINOMEscan competition binding. The settings on record: compound 10.0 µM.
A further assay has as its target TTK (human) (UniProt P33981). As to the kind of experiment: KINOMEscan competition binding. The following applies: compound 10.0 µM.
Assay [2] addresses LRRK2 (human), Q5S007 [G2019S]. Briefly: SelectScreen, TR FRET. (In general: Time-resolved FRET reads energy transfer from a long-lived donor to a nearby acceptor.)
The next assay concerns the target MAP3K2 (human) (UniProt Q9Y2U5). As to the kind of experiment: SelectScreen, TR FRET.
The next assay concerns the target MAP3K3 (human) (UniProt Q99759). As to the kind of experiment: SelectScreen, TR FRET.
Another assay has as its target TAOK2 (human) (UniProt Q9UL54). Briefly: SelectScreen, TR FRET.

DCLK1 (human), sequence (O15075 whole entry, looked up): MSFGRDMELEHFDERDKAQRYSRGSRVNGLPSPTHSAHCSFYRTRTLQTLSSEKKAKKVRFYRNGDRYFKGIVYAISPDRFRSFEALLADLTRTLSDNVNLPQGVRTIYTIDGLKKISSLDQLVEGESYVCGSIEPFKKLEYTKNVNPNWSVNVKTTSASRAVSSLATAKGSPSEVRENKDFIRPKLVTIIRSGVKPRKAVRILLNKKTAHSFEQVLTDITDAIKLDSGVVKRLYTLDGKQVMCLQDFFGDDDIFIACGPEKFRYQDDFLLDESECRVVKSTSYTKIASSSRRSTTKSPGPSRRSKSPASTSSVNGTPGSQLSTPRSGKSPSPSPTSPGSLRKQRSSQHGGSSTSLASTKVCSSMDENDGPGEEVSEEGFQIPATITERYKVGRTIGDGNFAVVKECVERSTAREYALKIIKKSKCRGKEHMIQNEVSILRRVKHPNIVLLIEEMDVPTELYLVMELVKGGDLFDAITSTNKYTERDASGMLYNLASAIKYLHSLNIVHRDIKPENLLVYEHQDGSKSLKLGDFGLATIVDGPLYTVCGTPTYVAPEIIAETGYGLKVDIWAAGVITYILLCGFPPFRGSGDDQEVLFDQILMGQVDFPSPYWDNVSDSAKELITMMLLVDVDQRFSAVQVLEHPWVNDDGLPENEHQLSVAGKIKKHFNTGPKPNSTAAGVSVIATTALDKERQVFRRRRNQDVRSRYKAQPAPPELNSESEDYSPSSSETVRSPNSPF
TNK2 (human), sequence (Q07912 whole entry, looked up): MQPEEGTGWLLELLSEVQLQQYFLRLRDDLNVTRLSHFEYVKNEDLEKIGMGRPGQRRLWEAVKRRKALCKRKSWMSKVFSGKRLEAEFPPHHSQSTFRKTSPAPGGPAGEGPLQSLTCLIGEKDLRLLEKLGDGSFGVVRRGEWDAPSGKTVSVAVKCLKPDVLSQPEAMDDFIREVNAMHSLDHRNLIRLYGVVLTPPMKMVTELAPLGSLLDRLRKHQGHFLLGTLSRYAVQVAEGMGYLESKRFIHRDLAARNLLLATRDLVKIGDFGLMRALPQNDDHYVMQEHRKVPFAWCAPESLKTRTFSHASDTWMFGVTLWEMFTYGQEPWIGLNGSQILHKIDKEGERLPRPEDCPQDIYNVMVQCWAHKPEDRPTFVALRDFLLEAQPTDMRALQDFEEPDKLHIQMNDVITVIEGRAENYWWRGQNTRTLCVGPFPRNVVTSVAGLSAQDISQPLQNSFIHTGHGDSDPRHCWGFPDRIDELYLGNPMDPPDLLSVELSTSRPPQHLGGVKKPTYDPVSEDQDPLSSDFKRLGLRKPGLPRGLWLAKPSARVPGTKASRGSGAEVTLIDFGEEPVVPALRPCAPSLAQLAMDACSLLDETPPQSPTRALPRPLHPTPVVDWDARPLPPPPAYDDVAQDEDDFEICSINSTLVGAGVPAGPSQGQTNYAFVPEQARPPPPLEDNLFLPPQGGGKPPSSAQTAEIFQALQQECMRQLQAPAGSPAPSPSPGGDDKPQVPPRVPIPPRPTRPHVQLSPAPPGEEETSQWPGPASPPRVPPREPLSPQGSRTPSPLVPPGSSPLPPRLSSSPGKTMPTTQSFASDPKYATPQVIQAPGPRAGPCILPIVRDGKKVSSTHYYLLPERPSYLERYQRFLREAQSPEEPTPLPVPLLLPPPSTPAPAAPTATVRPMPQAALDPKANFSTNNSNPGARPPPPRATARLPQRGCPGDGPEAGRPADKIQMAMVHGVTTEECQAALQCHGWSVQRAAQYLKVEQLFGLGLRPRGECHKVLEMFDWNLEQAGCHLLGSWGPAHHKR
DCLK2 (human), sequence (Q8N568 whole entry, looked up): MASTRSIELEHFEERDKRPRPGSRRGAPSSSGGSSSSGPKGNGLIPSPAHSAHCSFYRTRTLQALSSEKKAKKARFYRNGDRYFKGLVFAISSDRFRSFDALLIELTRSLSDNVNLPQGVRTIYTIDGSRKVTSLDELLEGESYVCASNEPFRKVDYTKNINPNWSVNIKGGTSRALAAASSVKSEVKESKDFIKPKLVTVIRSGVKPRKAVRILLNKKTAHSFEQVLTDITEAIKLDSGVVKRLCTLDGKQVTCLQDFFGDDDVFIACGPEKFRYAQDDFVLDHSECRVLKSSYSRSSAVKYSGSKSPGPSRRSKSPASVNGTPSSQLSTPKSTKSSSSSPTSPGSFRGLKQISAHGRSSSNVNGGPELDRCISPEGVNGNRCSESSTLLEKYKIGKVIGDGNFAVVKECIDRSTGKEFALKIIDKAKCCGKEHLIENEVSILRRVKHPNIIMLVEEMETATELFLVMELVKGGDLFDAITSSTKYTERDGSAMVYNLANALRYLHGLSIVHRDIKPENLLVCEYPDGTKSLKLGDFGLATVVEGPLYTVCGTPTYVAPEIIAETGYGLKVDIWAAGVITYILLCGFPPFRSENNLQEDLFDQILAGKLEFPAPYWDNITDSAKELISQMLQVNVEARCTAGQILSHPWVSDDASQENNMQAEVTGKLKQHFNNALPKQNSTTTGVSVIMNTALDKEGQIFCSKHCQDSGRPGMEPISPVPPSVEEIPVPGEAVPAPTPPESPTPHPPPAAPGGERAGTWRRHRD
ALK (human), sequence (Q9UM73 whole entry, looked up): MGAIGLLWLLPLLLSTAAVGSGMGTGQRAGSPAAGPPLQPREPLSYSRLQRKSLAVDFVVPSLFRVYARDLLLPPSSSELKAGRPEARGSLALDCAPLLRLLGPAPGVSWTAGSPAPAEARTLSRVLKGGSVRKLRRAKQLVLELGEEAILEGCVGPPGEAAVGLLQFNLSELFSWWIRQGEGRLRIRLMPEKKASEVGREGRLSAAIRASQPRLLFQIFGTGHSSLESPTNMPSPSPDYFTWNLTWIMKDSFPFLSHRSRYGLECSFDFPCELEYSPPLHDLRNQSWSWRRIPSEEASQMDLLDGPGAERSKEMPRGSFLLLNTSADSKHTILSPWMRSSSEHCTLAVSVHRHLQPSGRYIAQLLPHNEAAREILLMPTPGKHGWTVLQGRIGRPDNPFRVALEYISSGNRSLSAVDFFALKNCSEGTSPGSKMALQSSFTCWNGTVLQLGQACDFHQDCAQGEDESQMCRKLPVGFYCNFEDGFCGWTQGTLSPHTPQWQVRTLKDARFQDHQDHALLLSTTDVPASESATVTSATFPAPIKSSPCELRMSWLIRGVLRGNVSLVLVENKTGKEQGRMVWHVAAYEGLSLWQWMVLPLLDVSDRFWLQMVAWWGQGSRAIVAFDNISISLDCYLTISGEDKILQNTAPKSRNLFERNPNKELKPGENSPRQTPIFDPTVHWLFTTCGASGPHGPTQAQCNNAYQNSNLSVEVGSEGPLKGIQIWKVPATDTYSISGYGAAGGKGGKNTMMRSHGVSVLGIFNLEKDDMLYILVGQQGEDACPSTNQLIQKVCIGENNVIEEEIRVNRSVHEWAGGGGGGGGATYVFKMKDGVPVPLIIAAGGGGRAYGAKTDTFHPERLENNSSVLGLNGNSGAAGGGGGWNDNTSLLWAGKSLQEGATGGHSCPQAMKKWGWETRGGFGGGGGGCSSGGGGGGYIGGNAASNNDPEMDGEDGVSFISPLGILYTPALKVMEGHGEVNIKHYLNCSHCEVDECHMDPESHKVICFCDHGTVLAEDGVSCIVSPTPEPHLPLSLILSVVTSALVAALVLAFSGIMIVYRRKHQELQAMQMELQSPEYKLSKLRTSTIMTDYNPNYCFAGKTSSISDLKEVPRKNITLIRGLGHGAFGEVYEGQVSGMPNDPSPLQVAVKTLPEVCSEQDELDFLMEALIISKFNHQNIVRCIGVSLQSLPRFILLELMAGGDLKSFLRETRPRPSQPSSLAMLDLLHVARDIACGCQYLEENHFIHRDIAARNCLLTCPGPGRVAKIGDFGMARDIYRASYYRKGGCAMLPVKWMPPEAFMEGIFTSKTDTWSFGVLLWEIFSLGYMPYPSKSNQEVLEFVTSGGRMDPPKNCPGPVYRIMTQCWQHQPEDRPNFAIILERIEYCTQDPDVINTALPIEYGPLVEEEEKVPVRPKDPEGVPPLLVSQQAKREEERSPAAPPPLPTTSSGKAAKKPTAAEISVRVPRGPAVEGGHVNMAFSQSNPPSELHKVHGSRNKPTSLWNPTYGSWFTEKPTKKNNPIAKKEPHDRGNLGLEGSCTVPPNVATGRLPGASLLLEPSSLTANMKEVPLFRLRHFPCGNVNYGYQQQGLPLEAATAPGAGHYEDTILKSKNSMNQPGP
MAPK7 (human), sequence (Q13164 whole entry, looked up): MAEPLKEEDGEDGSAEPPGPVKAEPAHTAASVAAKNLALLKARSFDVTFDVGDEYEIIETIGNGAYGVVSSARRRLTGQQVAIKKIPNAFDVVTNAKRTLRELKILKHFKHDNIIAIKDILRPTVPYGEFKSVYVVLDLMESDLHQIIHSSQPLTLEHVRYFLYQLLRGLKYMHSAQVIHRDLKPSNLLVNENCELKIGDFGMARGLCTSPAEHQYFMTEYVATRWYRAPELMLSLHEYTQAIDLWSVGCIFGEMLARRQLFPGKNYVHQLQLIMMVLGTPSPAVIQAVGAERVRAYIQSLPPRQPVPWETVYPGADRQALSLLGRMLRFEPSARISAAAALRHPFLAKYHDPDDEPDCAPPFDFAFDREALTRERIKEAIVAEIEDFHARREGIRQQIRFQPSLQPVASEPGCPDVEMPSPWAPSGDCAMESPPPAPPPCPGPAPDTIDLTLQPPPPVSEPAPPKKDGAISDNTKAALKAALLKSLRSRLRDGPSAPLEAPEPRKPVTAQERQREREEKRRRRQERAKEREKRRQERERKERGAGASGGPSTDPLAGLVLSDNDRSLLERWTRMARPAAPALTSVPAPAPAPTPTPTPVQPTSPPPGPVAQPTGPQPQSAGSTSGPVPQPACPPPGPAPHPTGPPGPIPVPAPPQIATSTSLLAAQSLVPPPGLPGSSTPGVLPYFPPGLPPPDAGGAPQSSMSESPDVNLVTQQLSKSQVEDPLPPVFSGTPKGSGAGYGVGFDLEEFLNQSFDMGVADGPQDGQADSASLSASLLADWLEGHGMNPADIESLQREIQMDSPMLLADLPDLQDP

Usually Kd stands for a measure of binding affinity in units of concentration. Read a low Kd as higher affinity. What is called IC50 is the concentration at which inhibition is half-maximal. A lower IC50 goes with greater potency. On to `CCOc1cc(N2CCC(O)CC2)ccc1Nc1ncc2c(n1)N(C)c1ccccc1C(=O)N2C`, for which the kinase still bound, per cent of control in assay [1] was 30%; on ALK (human), 29%; on DCLK1 (human) (compound 10.0 µM), 0.9%; at DCLK2 (human), 0.65%; at GAK (human) it was 31%; on MAPK7 (human), 0%. Besides, the kinase still bound, per cent of control at PLK4 (human) is 2.8%; on ROS1 (human), 15%; at RPS6KA1 KD2 (human), 28%; on RPS6KA6 KD2 (human), 31%; on TNK1 (human) it was 7.8%; at TNK2 (human), 17%. Also, on TTK (human), the kinase still bound, per cent of control is 19%. This molecule also yielded a Kd at DCLK1 (human) of 0.097 µM. In addition, the IC50 in assay [2] came to 0.0026 µM; at MAP3K2 (human), 0.155 µM; against MAP3K3 (human), 0.12 µM; against TAOK2 (human) it was 0.0543 µM.

(Values after the kinase profiling compilation of Christmann-Franck et al. (2016).)
